Patent US7563895B2, “Quinoxaline compounds” (Janssen Pharmaceutica, N.V., priority 2003, dated 2009)

Key:
CCK2 receptor [1] = biological target: T1, CCK2 receptor (Homo sapiens, UniProt P32239); assay: CCK2 receptor radioligand binding assay ([125I]-BH-CCK-8S, HEKZFP cell membranes); conditions: competition with [125I]-BH-CCK-8S, membranes of induced HEKZFP cells, 60 min at 21±3° C., Cheng-Prusoff
T1 construct: Membranes were prepared from the HEKZFP cells after induction; endogenous in cells; host or cells: HEKZFP cells (T-REx-293 with tet-inducible ZFP-VP16 specific for the CCK2R gene), doxycycline-induced; membrane preparation
T1 sequence (P32239 1-447): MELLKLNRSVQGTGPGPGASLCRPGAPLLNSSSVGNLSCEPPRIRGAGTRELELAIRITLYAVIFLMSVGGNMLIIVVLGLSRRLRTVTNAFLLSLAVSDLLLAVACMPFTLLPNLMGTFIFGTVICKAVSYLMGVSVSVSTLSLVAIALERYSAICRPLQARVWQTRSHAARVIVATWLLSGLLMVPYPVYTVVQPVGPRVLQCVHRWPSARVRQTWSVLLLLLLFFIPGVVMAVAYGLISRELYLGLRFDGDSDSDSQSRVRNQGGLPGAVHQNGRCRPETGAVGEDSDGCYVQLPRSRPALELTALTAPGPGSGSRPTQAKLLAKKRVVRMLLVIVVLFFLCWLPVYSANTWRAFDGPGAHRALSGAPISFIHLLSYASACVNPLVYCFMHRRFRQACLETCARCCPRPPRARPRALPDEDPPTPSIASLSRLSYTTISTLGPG
Method: Zinc Finger Proteins (ZFP) specific for the CCK2R gene were identified by Sangamo Biosciences. The ZFP domain was fused with the herpes simplex virus VP16 activation domain, and the fusion protein was subsequently cloned into the pcDNA3 mammalian expression vector (Invitrogen, San Diego, Calif.). […] After 2 weeks of selection in culture medium containing […] Zeocin (Invitrogen), sixty drug-resistant stable clones were isolated and analyzed for ZFP expression as well as CCK2R induction upon addition of doxycycline to the culture medium.
HEKZFP cells were grown in DMEM supplemented with L-glutamine (2 mM), penicillin (50 units/mL) and streptomycin (50 μg/mL) and 10% FBS (v/v).
Membranes were prepared from the HEKZFP cells after induction. […] The thawed pellets were homogenized using a Polytron PT-10 (7×1 s). The homogenates were centrifuged for 5 min at 1500 rpm (600×g), and the resulting pellets were discarded. The supernatants were re-centrifuged in order to collect the receptor-membrane pellets (25 min 15,000 rpm; 39,800×g), which were re-suspended in buffer A.
The assay preparation was incubated for 1 h at 21±3° C., and then the assay was terminated by rapid filtration of the preparation under reduced pressure. The loaded filters were washed three times using undiluted PBS (100 μL), and then 100 μL of scintillation fluid was added to the filter plate. Bound radioactivity was determined using a Topcount (Packard BioScience, Meriden, Conn.) with a count time of 1 min. […] To validate the radioligand concentration and incubation time for the assay, saturation and kinetic binding studies were also conducted (see M. F. Morton, The Pharmacological Characterization of Cholecystokinin Receptors in the Human Gastrointestinal Tract. PhD Thesis, University of London, 2000). […] The assay was then terminated according to the procedure outlined above.
The pKi values were determined using the equation of Y.-C.
To circumvent problems associated with computer-assisted data analysis of compounds with low affinity, the data obtained in the current study were weighed according to a method described by Morton. In brief, 100% and 0% specific binding were defined independently using total binding and binding obtained in the presence of a high concentration of the reference antagonist, 2-NAP.

CCK2 receptor [2] = biological target: T2, CCK2 receptor (Cavia porcellus, UniProt H0VZC5); assay: Guinea-pig gastric corpeal muscle assay (pentagastrin-induced contraction of isolated muscle strips); conditions: pentagastrin concentration-response curves
T2 construct: strips of muscle were dissected and suspended in isolated tissue organ baths; from tissue; host or cells: guinea-pig gastric corpeal muscle strips
T2 sequence (H0VZC5 1-426): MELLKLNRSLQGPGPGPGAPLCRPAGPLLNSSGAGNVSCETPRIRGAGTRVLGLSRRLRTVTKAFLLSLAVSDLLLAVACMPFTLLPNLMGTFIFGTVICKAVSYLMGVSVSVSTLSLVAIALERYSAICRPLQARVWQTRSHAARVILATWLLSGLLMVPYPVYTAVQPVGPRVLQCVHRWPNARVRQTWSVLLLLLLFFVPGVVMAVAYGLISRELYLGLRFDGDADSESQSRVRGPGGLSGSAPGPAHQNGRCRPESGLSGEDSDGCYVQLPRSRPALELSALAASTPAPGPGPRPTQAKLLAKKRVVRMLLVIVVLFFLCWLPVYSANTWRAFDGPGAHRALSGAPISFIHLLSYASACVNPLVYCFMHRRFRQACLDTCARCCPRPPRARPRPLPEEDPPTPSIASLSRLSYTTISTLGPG
Method: Guinea-Pig Gastric Corpeal Muscle Assay
CCK2 receptor-mediated muscle contraction was measured in an isolated muscle-strip assay of guinea-pig gastric corpeal muscle according to the methods described by Roberts et al. (S. P. Roberts, E. A. Harper, G. F. Watt, V. P. Gerskowitch, R. A. Hull, N. P. Shankley, and J. W. Black, Br. J. Pharmacol., 1996, 118(7): 1779-1789). In brief, strips of muscle were dissected and suspended in isolated tissue organ baths for isotonic muscle contraction recording. The baths, containing Krebs-Henseleit solution, were maintained at 24° C. and gassed continuously with 95% O2 and 5% CO2. CCK1 receptors known to be present in this assay were blocked using a selective concentration of a suitable CCK1 receptor antagonist (e.g. 2-NAP). The effectiveness of the test compounds was assessed by measuring their effect on contractile concentration-response curves obtained using a well-characterized surrogate hormone gastrin (pentagastrin).

Row | Ki (CCK2 receptor [1]) [nM] | behaviour in the assay (mode of antagonism) (CCK2 receptor [2]) | Kb (CCK2 receptor [2]; CCK1 receptors blocked, 24° C., read-out: pKB value (converted)) [nM] | SMILES
1 | 20 | competitive antagonist | 1.58 | C[C@@H](NC(=O)c1ccc(Br)cc1NS(=O)(=O)c1cccc2nccnc12)c1ccc(F)cc1F [Example 2, (R)-4-Bromo-N-[1-(2,4-difluoro-phenyl)-ethyl]-2-(quinoxaline-5-sulfonylamino)-benzamide]
2 | 251 | – | – | O=C(c1ccc(Cl)cc1NS(=O)(=O)c1cccc2nccnc12)N1CCCCC1 [Example 79, Quinoxaline-5-sulfonic acid [5-chloro-2-(piperidine-1-carbonyl)-phenyl]-amide]
3 | 79.4 | – | – | O=C(c1ccc(C(F)(F)F)cc1NS(=O)(=O)c1cccc2nccnc12)N1CCOCC1 [Example 92, Quinoxaline-5-sulfonic acid [2-(morpholine-4-carbonyl)-5-trifluoromethyl-phenyl]-amide]
4 | 398 | – | – | O=C(c1ccc(I)cc1NS(=O)(=O)c1cccc2nccnc12)N1CCOc2cc(F)cc(F)c2C1 [Example 94, Quinoxaline-5-sulfonic acid [2-(6,8-difluoro-2,3-dihydro-5H-benzo[f][1,4]oxazepine-4-carbonyl)-5-iodo-phenyl]-amide]
